These results are taken from patent US20130196865A1, “METHOD FOR SELECTING AN IPS CELL” (THE GENERAL HOSPITAL CORPORATION, priority 2010, published 2013).

For data set [1], the system named is Dlk1-Dio3 locus (IG-DMR) methylation in iPSCs. Kind of data set: Derivation of iPS cells in the presence of ascorbic acid, DNA methylation at the Dlk1-Dio3 locus. The data set is classed as cell-based, mouse. On the procedure: These are 1) repression of an enzyme called Dnmt3a or 2) addition of ascorbic acid (Vitamin C) to do cell culture media during reprogramming (FIG. 15).
MEFs with a doxycycline-inducible polycistronic reprogramming cassette in their genome (Stadtfeld, M. et al. A reprogrammable mouse strain from gene-targeted embryonic stem cells. Nature methods 7(1):53-5) were reprogrammed into iPS cells by culture in either doxycycline-containing ESC media or doxycycline-containing ESC media with 50 ng/μl ascorbic acid (Sigma A4544). Doxycline was withdrawn after 10-14 days of culture and emerging iPS cell colonies picked and expanded in regular ESC culture media (without doxycycline, without ascorbic acid). Pluripotency of established iPS cell clones was confirmed by marker gene expression and blastocyst injections.
Genomic DNA was isolated using the DNeasy Blood and Tissue Kit (Qiagen) and bisulfite converted using the EpiTect Bisulfite Kit (Qiagen) with 100-1000 ng input. Converted DNA was used for PCR to amplify the regulatory IG-DMR region and PCR products were sequenced using the Pyrosequencing PSQ96 HS System (Biotage AB) (Stadtfeld, M. et al. Aberrant silencing of imprinted genes on chromosome 12qF1 in mouse induced pluripotent stem cells).

The test system of data set [2] is Gtl2^off and Gtl2^on iPSCs, ESCs. The experiment in a line: Retinoic acid in vitro differentiation of iPSCs and ESCs, qPCR. The data set is classed as cell-based, mouse. Conditions: for Meg3/Gtl2 and Rian expression during differentiation: RA 5 days. Here is the method: To assess if silencing of Meg3/Gtl2 might be resolved during differentiation, Gtl2^off and Gtl2^on iPSCs as well as ESCs were exposed to the differentiation-stimulating agent retinoic acid (RA) for 5 days. […] The expression of imprinted genes outside of chromosome 12qF1 was not affected (FIG. 3f, bottom, and FIG. 10)
(§1) cDNA was produced with the First Strand cDNA Synthesis Kit (Roche) using 1 μg of total RNA input. Real-time quantitative PCR reactions were set up in triplicate using 5 μl of cDNA (1:100 dilution) with the Brilliant II SYBR Green QPCR Master Mix (Stratagene) and run on a Mx3000P QPCR System (Stratagene).
On the technique in general: Real-time PCR tracks product formation cycle by cycle.

The subject of data set [3] is development of all-iPSC embryos/pups. The experiment in a line: 4n blastocyst injection of VA-rescued iPSC clone. The data set is classed as in vivo, mouse. Here is the method:
2n and 4n blastocyst injections were performed as described before (Eggan, K et al., PNAS USA 98(11):6209 (2001)). Briefly, female BDF1 mice were super-ovulated by intraperitoneal injection of PMS and hCG and mated to BDF1 stud males. Zygotes were isolated from females with a vaginal plug 24 hour after hCG injection. Zygotes for 2n injections were in vitro cultured for 3 days in vitro in KSOM media, blastocysts were identified, injected with ESCs or iPSCs and transferred into pseudopregnant recipient females. For 4n injections, zygotes were cultured overnight until they reached the 2-cell stage, at which point they were electrofused.

Data set [4] deals with chromatin marks at the Gtl2 promoter. Kind of data set: Chromatin immunoprecipitation at the Meg3/Gtl2 locus after VA rescue. Conditions: VA-rescued clone. The data set is classed as cell-based, mouse. On the procedure:
20 million iPSCs, ESCs or MEFs were fixed with 1% formaldehyde for 10 minutes at room temperature (RT) and then lysed in 1 ml lysis buffer (50 mM Tris-HCl, pH 8.0, 10 mM EDTA, 1% SDS, protease inhibitors) for 20 minutes on ice. The lysate was split into three tubes and sonicated using Bioruptor for five times five minutes at high intensity, 30 sec on-30 sec off. After 10 minutes centrifugation, the supernatant was precleared for 1 hour at 4° C. with agarose beads preblocked with BSA (1 mg BSA for 10 ml beads) in IP Buffer (50 mMM Tris-HCl, pH8, 150 mM NaCl, 2 mM EDTA, 1% NP-40, 0.5% Sodium Deoxycholate, 0.1% SDS, protease inhibitors). […] of precleared chromatin per reaction diluted in 1 ml IP Buffer in presence of 2 ug antibody were used for each immunoprecipitation reaction according to manufacturer's protocol. The antibodies used for this study were: anti-aCH3 (06-5 99 Millipore), anti-acH4 (06-866, Millipore), anti-dimethyl K4 of H3 (07-030, Millipore), anti-trimethyl K27 of H3 (ab6002, Abcam) and normal rabbit IgG (Millipore). The precipitate was purified using Qiaquick PCR purification kit and was analyzed by qPCR using Brilliant II SYBR Green qPCR Master Mix (600828, Agilent Technologies) using the sequence specific primer sets. Gtl2: 5′-[…]-3′ (FWD) and 5′-[…]3′ (REV) and Pou5f1: 5′-[…]-3′ (FWD) and 5′-[…]-3′ (REV).

In data set [5] the test system is Meg3/Gtl2 expression in Gtl2^off iPSC clone #45 subclones. The experiment in a line: Valproic acid treatment of Gtl2off iPSC subclones, Meg3/Gtl2 expression by qPCR. In kind it is cell-based, mouse. On the procedure:
as §1

In the case of `O=C1O[C@H]([C@@H](O)CO)C(O)=C1O` [ascorbic acid], the “abnormal methylation in iPSCs” value in data set [1] (FIG. 15b) is listed as “prevents abnormal methylation”. Moreover, the “frequency of "normal iPSCs"” value in data set [1] (ascorbic acid added to culture media during reprogramming) is reported as “dramatically increased”.

In the case of `CC1=C(/C=C/C(C)=C/C=C/C(C)=C/C(=O)O)C(C)(C)CCC1` [retinoic acid, all-trans retinoic acid], the “Meg3/Gtl2 and Rian expression during differentiation” value in data set [2] (Gtl2^off iPSCs) was “stable silencing”; in data set [2] (Gtl2^on iPSCs and ESCs) it was “readily upregulated”. For the same compound, in data set [2] (Gtl2^off iPSCs, RA treated), the “Dlk1 expression upon differentiation” value is reported as “express high levels”. The Pou5f1 expression result in data set [2] (all RA-treated clones, 5 days) is given as “downregulation of Pou5f1”.

Take `CCCC(CCC)C(=O)O` [valproic acid]: in data set [3] (VA-rescued clone, not seen with parental iPSCs), the “full-term development after 4n blastocyst injection” value is given as “supported the development of several full-term pups”. Moreover, the “phenotype of full-term pups” value in data set [3] (pups from VA-rescued clone) was “severely overgrown, however, and hence non-viable”. The “activation-associated chromatin marks at the Meg3/Gtl2 locus” value in data set [4] is “re-appearance of H3K4 methylation and H3 acetylation”. The “subclones exhibiting increased Meg3/Gtl2 expression” value in data set [5] (Gtl2^off iPSC subclones treated with VA) is recorded as “two out of 21”. Besides, in data set [5] (one VA-treated iPSC clone, versus ESCs), the “Meg3/Gtl2 expression level of rescued clone” value is given as “comparable to ESCs”.
